This assay relates to human subjects. The experiment in a line: Human olfactory psychophysics: odor profiling with 146 descriptors. It is filed as in vivo. To be noted: androstenone 1/10,000. On the procedure: Human olfactory psychophysics. All human subjects gave informed consent to participate in this study and were tested in a well-ventilated room. Normal human subjects (n=412; 218 female, 194 male; median age 34, age range 19-75) were pre-screened to exclude pregnant women and those with medical conditions causing general impairment of the sense of smell. All subjects completed two replicates of the test separated by at least 4 days. Odors were presented in amber vials as previously described (see, e.g., Keller, A., et al., Nat Neurosci 7, 337-338 (2004); herein incorporated by reference in its entirety) using bar-coded symbols to ensure that subjects were blind to the identity of all odors. The intensity and valence of 66 odors at two concentrations (“high” and “low”) and two solvents was rated using a 7-point scale. Thresholds were calculated using the single staircase method with seven reversals (see, e.g., Doty, R. L., et al., Chem Senses 20, 645-656 (1995); Doty, R. L. & Laing, D. G. in Handbook of Olfaction and Gustation (ed. Doty, R. L.) pp. 203-228 (Marcel Dekker, Inc., New York, 2003); each of which are herein incorporated by reference in their entireties). Threshold tests included both steroids as binary dilutions from […] (binary dilution 6) to 1: 134,217,728 (binary dilution 27). […]
Assigning descriptors to odors. Subjects assessed the quality of six odors using an odor profiling method that has shown to produce stable profiles of odorants. […] Odor profiling typically took five minutes per odorant and was performed as a computer-controlled selftest in which the subject's responses were directly recorded. […] The descriptors used to describe the other four odors (vanillin, pentadecalactone, androstenone, and propylene glycol) were evaluated. […]

For `C[C@]12CCC(=O)C[C@@H]1CC[C@@H]1[C@@H]2CC[C@]2(C)C=CC[C@@H]12` [androstenone, 5α-androst-16-en-3-one], the “use of descriptor "sickening", OR7D4 RT/WM vs RT/RT subjects” value is “less likely” and the “use of descriptor "vanilla", OR7D4 RT/WM vs RT/RT subjects” value is “more likely”.

(Values after patent publication US8298781B2, “Compositions and methods for characterizing and regulating olfactory sensation” (Duke University, priority 2007, dated 2012).)
